Where a SMILES comes first, the peptide text is derived from it. Bridges are numbered along the chain shown (N, C = ends). [ ]: non-standard residue; d: D form. hPhe(3-Cl-4-CF3) = N[C@@H](CCc1ccc(C(F)(F)F)c(Cl)c1)C(=O)O; NPrPhe(4-CF3) = CCCN[C@@H](Cc1ccc(C(F)(F)F)cc1)C(=O)O; NMeGly(cPent) = CN[C@H](C(=O)O)C1CCCC1; NMeNva(3-Et) = CCC(CC)[C@H](NC)C(=O)O; Hyp = O=C(O)[C@@H]1C[C@@H](O)CN1; NMeD = CN[C@@H](CC(=O)O)C(=O)O; NMeL = CN[C@@H](CC(C)C)C(=O)O; NMeA = CN[C@@H](C)C(=O)O; Aze = O=C(O)[C@@H]1CCN1; Ac4c = NC1(C(=O)O)CCC1; Sar = CNCC(=O)O
Tests used:
HRAS wild-type protein = HRAS wild-type protein (Homo sapiens, UniProt P01112); assay: Binding to HRAS by surface plasmon resonance (SPR), KD and KD ratio to KRAS
Sequence of HRAS wild-type protein (P01112 whole entry): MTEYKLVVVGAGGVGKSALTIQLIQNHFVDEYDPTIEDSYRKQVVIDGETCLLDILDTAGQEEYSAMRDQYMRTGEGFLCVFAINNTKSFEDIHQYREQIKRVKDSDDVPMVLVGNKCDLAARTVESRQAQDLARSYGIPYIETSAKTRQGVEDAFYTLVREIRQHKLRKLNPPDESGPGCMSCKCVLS
How it was run: (§1)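 Recombinant RAS proteins bearing a biotinylated Avi tag and loaded with GDP served as the captured ligand, recaptured fresh every cycle. Binding responses were referenced to an uncoated surface and a buffer-only blank cycle. Dissociation constants were obtained by 1:1 model fitting at 30°C.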

[1] = tested on: human lung cancer strain NCI-H441; format: cell-based
How it was run: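 Signal came from […] measured per well once the reagent was added. Beforehand, cells were cultured at 37°C and 5% carbon dioxide on a compound series serially diluted in dimethyl sulfoxide.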

[2] = biological target: GDP-bound NRAS wild-type protein (Homo sapiens, UniProt P01111); assay: Binding to NRAS by surface plasmon resonance (SPR), KD and KD ratio to KRAS
Sequence of GDP-bound NRAS wild-type protein (P01111 whole entry): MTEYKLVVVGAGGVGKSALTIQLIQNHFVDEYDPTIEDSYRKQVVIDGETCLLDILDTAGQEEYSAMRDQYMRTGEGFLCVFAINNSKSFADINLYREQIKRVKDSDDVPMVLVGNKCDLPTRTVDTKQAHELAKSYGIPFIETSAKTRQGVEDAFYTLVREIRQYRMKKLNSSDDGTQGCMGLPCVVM
How it was run: as §1

[3] = ratio of KD for HRAS wild-type protein to KD for KRAS
[4] = ratio of KD for GDP-bound NRAS wild-type protein to KD for KRAS
[5] = ratio of the KD value with respect to HRAS wild-type protein to the KD value with respect to KRAS
[6] = ratio of the KD value with respect to GDP-bound NRAS wild-type protein to the KD value with respect to KRAS

Row | SMILES | HRAS /KRAS (HRAS wild-type protein; [3]) | IC50 [1] [nM] | NRAS /KRAS [2, 4] | HRAS /KRAS (HRAS wild-type protein; [5]) | NRAS /KRAS [2, 6] | HRAS /KRAS (HRAS wild-type protein; ratio of KD value for HRAS wild-type protein to KD value for KRAS (SPR)) | NRAS /KRAS ([2]; ratio of KD value for GDP-bound NRAS wild-type protein to KD value for KRAS (SPR))
1 | CCCN1C(=O)CN(C)C(=O)CNC(=O)[C@H]([C@@H](C)CC)NC(=O)[C@H](CC(C)C)N(C)C(=O)C[C@@H](C(=O)N(C)C)NC(=O)[C@H](C2CCCC2)N(C)C(=O)C2(CCC2)NC(=O)[C@@H]2C[C@@H](OCC)CN2C(=O)[C@H](CCc2ccc(C(F)(F)F)c(Cl)c2)NC(=O)CN(C)C(=O)[C@@H]1Cc1ccc(C(F)(F)F)cc1 [PP0366] ([NMeL]IG[Sar][NPrPhe(4-CF3)][Sar][hPhe(3-Cl-4-CF3)][Hyp](Et)[Ac4c][NMeGly(cPent)]D-NMe2; lactam N-11) | B (a compound having 3 or more and less than 10 is denoted as B) | 80.2 | B (a compound having 3 or more and less than 10 is denoted as B) |  |  |  | 
2 | CCO[C@@H]1C[C@H]2C(=O)NC3(CC(C)(C)C3)C(=O)N(C)[C@@H](C(CC)CC)C(=O)N(C)[C@H](C(=O)N(C)C)CC(=O)N(C)[C@@H](C(C)C)C(=O)N[C@@H]([C@@H](C)CC)C(=O)N(C)CC(=O)N(C)[C@H]3C/C=C\CCN(C3=O)[C@@H](Cc3ccc(C(F)(F)F)cc3)C(=O)N(C)CC(=O)N[C@@H](CCc3ccc(C(F)(F)F)c(OC)c3)C(=O)N2C1 [PP2165] |  | 17.5 |  | A (a compound having 10 or more and less than 20 is denoted as A) | A (a compound having 10 or more and less than 20 is denoted as A) |  | 
3 | CC[C@H](C)[C@@H]1NC(=O)[C@H](CC(C)C)N(C)C(=O)C[C@@H](C(=O)N2CCOCC2)N(C)C(=O)[C@H](C2CCCC2)N(C)C(=O)C2(CCCC2)NC(=O)[C@@H]2CCCN2C(=O)[C@H](CCc2ccc(C(F)(F)F)c(Cl)c2)NC(=O)CN(C)C(=O)[C@H](Cc2ccc(Cl)cc2)N2CCCCC[C@@H](C2=O)N(C)C(=O)CN(C)C1=O [PP0613] |  | 42.4 |  | B (a compound having 3 or more and less than 10 is denoted as B) | B (a compound having 3 or more and less than 10 is denoted as B) |  | 
4 | CC[C@H](C)[C@@H]1NC(=O)[C@H](CC)N(C)C(=O)C[C@@H](C(=O)N(CC)CC)N(C)C(=O)[C@H](C2CCCC2)N(C)C(=O)C2(CC(C)(C)C2)NC(=O)[C@@H]2C[C@H](C)CN2C(=O)[C@H](CCc2ccc(C(F)(F)F)c(OC)c2)NC(=O)CN(C)C(=O)[C@H](Cc2ccc(C)cc2)N2CC/C=C\C[C@@H](C2=O)N(C)C(=O)CN(C)C1=O [PP1839] |  | 24.3 |  |  |  | B (a compound having 3 or more and less than 10 is denoted as B) | A (a compound having 10 or more and less than 20 is denoted as A)
5 | CCO[C@@H]1C[C@H]2C(=O)NC3(CCC3)C(=O)N(C)[C@@H](C3CCCC3)C(=O)N(CC)[C@H](C(=O)N(C)C)CC(=O)N(C)[C@@H](CC)C(=O)N[C@@H]([C@@H](C)CC)C(=O)N(C)CC(=O)N(C)[C@H]3C/C=C\CCN(C3=O)[C@@H](Cc3ccc(C(F)(F)F)cc3)C(=O)N(C)CC(=O)N[C@@H](CCc3cc(F)c(C(F)(F)F)c(F)c3)C(=O)N2C1 [PP0980] | B (a compound having 3 or more and less than 10 is denoted as B) | 223 | A (a compound having 10 or more and less than 20 is denoted as A) |  |  |  | 
6 | CCCN1C(=O)[C@@H]2CCN2C(=O)[C@H](C)N(C)C(=O)[C@H]([C@@H](C)CC)NC(=O)[C@H](CC(C)C)N(C)C(=O)C[C@@H](C(=O)N(C)C)N(C)C(=O)[C@H](C(CC)CC)N(C)C(=O)C2(CCC2)NC(=O)[C@@H]2CCCN2C(=O)[C@H](CCc2ccc(C(F)(F)F)c(Cl)c2)NC(=O)CN(C)C(=O)[C@@H]1Cc1ccc(C(F)(F)F)cc1 [PP1961] ([NMeL]I[NMeA][Aze][NPrPhe(4-CF3)][Sar][hPhe(3-Cl-4-CF3)]P[Ac4c][NMeNva(3-Et)][NMeD]-NMe2; lactam N-11) |  | 8 |  | C (A compound having a KD ratio of 0.1 or more and less than 3 is denoted as C) | C (A compound having a KD ratio of 0.1 or more and less than 3 is denoted as C) |  | 
7 | CCC[C@H]1C(=O)N[C@@H](C2CCCCC2)C(=O)N(C)CC(=O)N(C)[C@H]2C/C=C\CCN(C2=O)[C@@H](Cc2ccc(C(F)(F)F)cc2)C(=O)N(C)CC(=O)N[C@@H](CCc2ccc(C(F)(F)F)c(Cl)c2)C(=O)N2C[C@H](OCC)C[C@H]2C(=O)NC2(CC(C)(C)C2)C(=O)N(C)[C@@H](CC(C)(C)C)C(=O)N(C)[C@H](C(=O)N(C)C)CC(=O)N1C [PP3014] | A (a compound having 10 or more and less than 20 is denoted as A) | 20.6 | AA (a compound having 20 or more is denoted as AA) |  |  |  | 
